According to PubChem BioAssay AID330 (DTP/NCI, 2004):
“And” between values parts separate entries of the source, which are not always exact repeats. Identical values can stand only once. Toxic doses and inconclusive results are not listed. The calls were made as follows: active = survival T/C of 150% or more; inactive = T/C below 125% in these data.

Test system: P388 leukemia ip, CD2F1 mice, survival T/C
Assay: NCI In Vivo Anticancer Drug Screen. Data for tumor model P388 Leukemia (intraperitoneal) in CD2F1 (CDF1) mice
Conditions: endpoint: median survival time, higher = longer survival
Summary of the method: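 Mice carrying the transplanted tumor received test compound or vehicle. Survival was recorded in each group, and the value is the treated-group measurement divided by that of the vehicle-treated control group.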

[1] = dose: 7.5 mg/kg/injection, schedule: Q01DX005 (ip), vehicle: saline with Tween-80
[2] = dose: 15.0 mg/kg/injection, schedule: Q01DX005 (ip), vehicle: saline with Tween-80
[3] = dose: 30.0 mg/kg/injection, schedule: Q01DX005 (ip), vehicle: saline with Tween-80

Measured: T/C

CC(C)(C)NCC(O)COc1nsnc1N1CCOCC1 (stereo unspecified)
inactive: dose: 50.0 mg/kg/injection, schedule: Q01DX009 (ip), vehicle: water 103 % of control | dose: 100.0 mg/kg/injection, schedule: Q01DX009 (ip), vehicle: water 108 % of control | dose: 200.0 mg/kg/injection, schedule: Q01DX009 (ip), vehicle: water 111 % of control

Cc1ccc(CNc2cc(C)ccn2)cc1
inactive: dose: 50.0 mg/kg/injection, schedule: Q01DX009 (ip), vehicle: other 109 % of control | dose: 100.0 mg/kg/injection, schedule: Q01DX009 (ip), vehicle: other 109 % of control

O=C1CC[C@@H](NC(=O)Cc2ccccc2)C(=O)N1
inactive: [1] 103 % of control | [2] 97 % of control | [3] 98 % of control and 101 % of control | dose: 31.25 mg/kg/injection, schedule: Q01DX005 (ip), vehicle: saline with Tween-80 102 % of control | dose: 60.0 mg/kg/injection, schedule: Q01DX005 (ip), vehicle: saline with Tween-80 94 % of control and 96 % of control | dose: 62.5 mg/kg/injection, schedule: Q01DX005 (ip), vehicle: saline with Tween-80 101 % of control | dose: 120.0 mg/kg/injection, schedule: Q01DX005 (ip), vehicle: saline with Tween-80 88 % of control | dose: 125.0 mg/kg/injection, schedule: Q01DX005 (ip), vehicle: saline with Tween-80 99 % of control and 93 % of control | dose: 250.0 mg/kg/injection, schedule: Q01DX005 (ip), vehicle: saline with Tween-80 90 % of control | dose: 500.0 mg/kg/injection, schedule: Q01DX005 (ip), vehicle: saline with Tween-80 89 % of control

COC(=O)C(Cc1c[nH]c2ccccc12)N1CN(C)c2ccccc2C1=O (stereo unspecified)
inactive: dose: 60.0 mg/kg/injection, schedule: Q01DX005 (ip), vehicle: Klucel (hydroxypropylcellulose) (HPC) 98 % of control | dose: 120.0 mg/kg/injection, schedule: Q01DX005 (ip), vehicle: Klucel (hydroxypropylcellulose) (HPC) 98 % of control | dose: 240.0 mg/kg/injection, schedule: Q01DX005 (ip), vehicle: Klucel (hydroxypropylcellulose) (HPC) 90 % of control

O=C(NN(Cn1c(=S)sc2ccccc21)Cn1c(=S)sc2ccccc21)c1cccc([N+](=O)[O-])c1
inactive: dose: 100.0 mg/kg/injection, schedule: Q01DX001 (ip), vehicle: Klucel (hydroxypropylcellulose) (HPC) 93 % of control | dose: 200.0 mg/kg/injection, schedule: Q01DX001 (ip), vehicle: Klucel (hydroxypropylcellulose) (HPC) 92 % of control | dose: 400.0 mg/kg/injection, schedule: Q01DX001 (ip), vehicle: Klucel (hydroxypropylcellulose) (HPC) 113 % of control

C/C(=N\NC(=O)c1ccccc1)C(=O)O
inactive: dose: 100.0 mg/kg/injection, schedule: Q04DX002 (ip), vehicle: Klucel (hydroxypropylcellulose) (HPC) 106 % of control | dose: 200.0 mg/kg/injection, schedule: Q04DX002 (ip), vehicle: Klucel (hydroxypropylcellulose) (HPC) 100 % of control | dose: 400.0 mg/kg/injection, schedule: Q04DX002 (ip), vehicle: Klucel (hydroxypropylcellulose) (HPC) 99 % of control

CC(C)=CCC(OC(=O)C=C(C)C)c1cc(O)c2c(O)ccc(O)c2c1O.[Co] (stereo unspecified)
inactive: dose: 100.0 mg/kg/injection, schedule: Q01DX001 (ip), vehicle: saline with Tween-80 103 % of control | dose: 200.0 mg/kg/injection, schedule: Q01DX001 (ip), vehicle: saline with Tween-80 101 % of control | dose: 400.0 mg/kg/injection, schedule: Q01DX001 (ip), vehicle: saline with Tween-80 113 % of control

O=C(NC(CSSCC(NC(=O)c1ccc([N+](=O)[O-])cc1)C(=O)O)C(=O)O)c1ccc([N+](=O)[O-])cc1 (stereo unspecified)
inactive: dose: 50.0 mg/kg/injection, schedule: Q01DX005 (ip), vehicle: saline with Tween-80 108 % of control | dose: 100.0 mg/kg/injection, schedule: Q01DX005 (ip), vehicle: saline with Tween-80 101 % of control | dose: 200.0 mg/kg/injection, schedule: Q01DX005 (ip), vehicle: saline with Tween-80 109 % of control

O=C1CC2CCCCC2CC1c1ccc(OCc2ccccc2)c(OCc2ccccc2)c1 (stereo unspecified)
inactive: dose: 50.0 mg/kg/injection, schedule: Q01DX009 (ip), vehicle: saline with Tween-80 91 % of control | dose: 100.0 mg/kg/injection, schedule: Q01DX009 (ip), vehicle: saline with Tween-80 97 % of control | dose: 200.0 mg/kg/injection, schedule: Q01DX009 (ip), vehicle: saline with Tween-80 103 % of control

CCC(C)(OC(C)=O)C(=O)OC1C(=O)OC2CC3C(C)=CC(O)C(O)C3(C)C3C4(O)OCC23C1C(C)C4O (stereo unspecified)
inactive: dose: 0.25 mg/kg/injection, schedule: Q01DX009 (ip), vehicle: saline + alcohol 103 % of control | dose: 0.5 mg/kg/injection, schedule: Q01DX009 (ip), vehicle: saline + alcohol 96 % of control | dose: 1.0 mg/kg/injection, schedule: Q01DX009 (ip), vehicle: saline + alcohol 96 % of control | dose: 2.0 mg/kg/injection, schedule: Q01DX009 (ip), vehicle: saline + alcohol 96 % of control | dose: 4.0 mg/kg/injection, schedule: Q01DX009 (ip), vehicle: saline + alcohol 99 % of control

COc1ccc2nc3cc(Cl)ccc3c(NCCCC3CCCN4CCCCC34)c2c1 (stereo unspecified)
inactive: [1] 108 % of control | [2] 108 % of control | [3] 111 % of control
